Assay results as given in patent publication US8318792B2, “Therapeutic agent for amyotrophic lateral sclerosis” (Nippon Medical School Foundation, priority 2006, dated 2012).

Key:
[1] = system: neurotoxin in cerebrospinal fluid from ALS patients; settings: in vitro; Non-Patent Document 3; cited from earlier work
G1H-G93A transgenic mice = assay: Clinical symptomatological evaluation (day of onset, survival period, disease period, stage periods); assay type: in vivo, mouse
Method: 1) The procedure of concentration adjustment, and the amount and the procedure of administration of the compound (a) were as described below. As a base, 0.5% methylcellulose is prepared. 5 mg of the compound (a) is pulverized in an agate mortar, and then a small amount of 0.5% methylcellulose is added to form a complete suspension. Subsequently, a small amount of 0.5% methylcellulose is added gradually, so that finally 5 mg of the compound (a) is suspended in 10 mL of 0.5% methylcellulose. A sample of 5 mg of compound (a)/10 mL of 0.5% methylcellulose (5 mg/10 mL) was prepared by the above-described procedure, and thus the compound (a) was orally administered once a day in a dose of 5 mg per kg of the mouse body weight (5 mg/kg).
As the experimental animal, male transgenic mice over-expressing a high copy number (25 copies) of mutated human SOD1 gene with a G93A point mutation, i.e., B6SJL-TgN [SOD1-G93A]1Gur (G1H-G93A transgenic mice, JR2726; Hemizygote) (Gurney M E, et al., Science, 264, 1772-1775, 1994), were purchased from Jackson Laboratory (Bar Harbor, USA) and used. At the same time, wild-type male mice from the same litter, B6SJL-TgN[SOD1-G93A]1Gur (Wild-type), were also purchased from Jackson Laboratory and used.
The mice were subjected to a clinical symptomatological evaluation everyday. The clinical symptomatological evaluation was performed from one week after the arrival from Jackson Laboratory. […] The day of onset, the survival period and the disease period were indicated by the number of days. In regard to the indication of the number of days of the disease period, one day (one disease day) corresponds to within 24 hours from the onset (the “onset” is determined by the observation of the clinical symptomatological evaluation stage 1), and two days (two disease days) corresponds to more than 24 hours after and within 48 hours from the onset. Subsequent disease days after the onset were determined in the same manner.
The mice were divided into seven experimental groups, to which a placebo, the compound (a), compound (b), compound (c) or allopurinol was administered. That is, the seven groups consist of: an experimental group administered with placebo; a treatment experimental group administered with compound (a) before onset; a treatment experimental group administered with compound (a) after onset; a treatment experimental group administered with compound (b) before onset; a treatment experimental group administered with compound (c) before onset; a treatment experimental group administered with compound (c) after onset; and a treatment group administered with allopurinol before onset. Details of the respective groups will be described in the following.
Ten G1H-G93A transgenic mice were used. From the 80th day after birth, 5 mg/kg of the compound (a) was orally administered everyday. […]
Ten G1H-G93A transgenic mice were used. From the 80th day after birth, 5 mg/kg of the compound (b) was orally administered everyday.
Ten G1H-G93A transgenic mice were used. From the 80th day after birth, 5 mg/kg of the compound (c) was orally administered everyday. […]
Ten G1H-G93A transgenic mice were used. From the 80th day after birth, 5 mg/kg of allopurinol was orally administered everyday.
In regard to the results of the clinical symptomatological evaluation, the day of onset, the survival period (days taken to show quadriplegia and to reach the moribund state), the disease period (days taken to show quadriplegia and to reach the moribund state, from the day of onset), and the time periods for the respective stages of the clinical symptomatological evaluation, were indicated by the average±standard deviation. In regard to the results of the exercise tolerance test, the score values of the respective exercise tolerance tests, including the extension reflex test, inclined plane test, footprint test, rotarod test and beam balance test, were indicated by the average±standard deviation. […]

[2] = system: transgenic mouse which expresses human mutated SOD1 gene; settings: Non-Patent Document 9, cited from earlier work
[3] = 5 mg/kg oral daily from 80th day after birth (before onset), Mann-Whitney's U test, log-rank test
[4] = 5 mg/kg oral once a day from 80th day after birth (before onset), average±SD

Row | Compound | action on the neurotoxin in cerebrospinal fluid from ALS patients [1] | time periods for the respective stages in comparison to placebo group (G1H-G93A transgenic mice; 5 mg/kg oral daily from 80th day after birth (before onset), Mann-Whitney's U test) | disease period extending effect in comparison to placebo group (G1H-G93A transgenic mice; [3]) | onset delaying effect in comparison to placebo group (G1H-G93A transgenic mice; [3]) | survival period extending effect in comparison to placebo group (G1H-G93A transgenic mice; [3]) | day of onset (G1H-G93A transgenic mice; [4]) [days] | disease period (G1H-G93A transgenic mice; [4]) [days] | survival period (G1H-G93A transgenic mice; [4]) [days] | time period of clinical symptomatological stage 1 (G1H-G93A transgenic mice; [4]) [days] | time period of clinical symptomatological stage 2 (G1H-G93A transgenic mice; [4]) [days] | time period of clinical symptomatological stage 3 (G1H-G93A transgenic mice; [4]) [days] | time period of clinical symptomatological stage 4 (G1H-G93A transgenic mice; [4]) [days] | time period of clinical symptomatological stage 5 (G1H-G93A transgenic mice; [4]) [days] | effect on life span in the transgenic mouse [2] | ALS treating effect ([2]; intraperitoneal administration in an amount of 10 mg/kg)
1 | Oc1ncnc2[nH]ncc12 [allopurinol, reference compound] | counteract the neurotoxin | not found to have the extended period of respective stages with significant differences | did not lead to the onset delaying effect, survival period extending effect or disease period extending effect | did not result in significant delaying of the day of onset | did not lead to the onset delaying effect, survival period extending effect or disease period extending effect | 102.2 ± 4.4 | 21.0 ± 3.6 | 122.2 ± 1.3 | 6.8±1.1 | 5.4±1.3 | 4.4±1.2 | 2.9±0.7 | 1.5±0.5 |  | 
2 | [O-][n+]1cccc(/C(Cl)=N/OC[C@H](O)CN2CCCCC2)c1 [arimoclomol] |  |  |  |  |  |  |  |  |  |  |  |  |  | prolongation of life | effective
3 | vitamin E | counteract the neurotoxin |  |  |  |  |  |  |  |  |  |  |  |  |  | 
